From ChEMBL document CHEMBL1201862, “PubChem BioAssay data set” (2004)
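These data come from cells grown in 96-well plates and exposed to compound for 48 hours at five concentrations. The concentration for 50% growth inhibition is given as GI50.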 The source made the active and inactive calls. No stated cut-off is given here; in the data, active = GI50 up to about 1.1 µM and inactive = higher.

What was measured:
Assay in all cases: NCI tumour cell line growth inhibition, 48 h
[1] = test system: A549
[2] = test system: OVCAR-4
[3] = test system: HCT-15
[4] = test system: SN12C
[5] = test system: UACC-257
[6] = test system: NCI-H460
[7] = test system: HCC 2998
[8] = test system: MDA-MB-231
[9] = test system: ACHN
[10] = test system: HCT-116
[11] = test system: UO-31
[12] = test system: SF-268
[13] = test system: Malme-3M
[14] = test system: NCI-H522
[15] = test system: SK-MEL-5
[16] = test system: OVCAR-8
[17] = test system: SK-MEL-2
[18] = test system: OVCAR-3
[19] = test system: M14
[20] = test system: SK-OV-3

Structure (SMILES) | GI50 [1] | GI50 [2] | GI50 [3] [µM] | GI50 [4] | GI50 [5] | GI50 [6] | GI50 [7] | GI50 [8] | GI50 [9] | GI50 [10] | GI50 [11] | GI50 [12] | GI50 [13] | GI50 [14] | GI50 [15] | GI50 [16] | GI50 [17] | GI50 [18] | GI50 [19] | GI50 [20]
Cc1ccc2c(c1)-c1nc(N)c(C#N)c(-c3ccc(Cl)cc3)c1CCS2(=O)=O | 34.8 µM (inactive) | 52 µM (inactive) | 43.2 | 55.7 µM (inactive) | 45.6 µM (inactive) | 35.2 µM (inactive) | 64.3 µM (inactive) | 27.1 µM (inactive) | 44.6 µM (inactive) | 33 µM (inactive) | 20 µM (inactive) | 67.6 µM (inactive) | 44.6 µM (inactive) | 29.8 µM (inactive) | 18.2 µM (inactive) | 32 µM (inactive) | 22.5 µM (inactive) |  |  | 
COC(=O)C1(C(=O)OC)Cc2ccc(C)cc2C2=C1C(=O)c1ccccc1C2=O | 29.9 µM (inactive) | 11.5 µM (inactive) | 12.6 | 19.8 µM (inactive) | 16.5 µM (inactive) | 40.6 µM (inactive) |  | 16.7 µM (inactive) | 16.5 µM (inactive) | 18.2 µM (inactive) |  | 16 µM (inactive) | 32 µM (inactive) | 15.1 µM (inactive) | 15 µM (inactive) | 13.3 µM (inactive) | 11.7 µM (inactive) | 3.24 µM (inactive) | > 10 µM (inactive) | 
C#C[C@]1(O)CC[C@H]2[C@@H]3CCC4=C/C(=N/CCOC(=O)c5cccc6cc7ccccc7nc56)CC[C@@H]4[C@H]3CC[C@@]21C | 28.4 µM (inactive) | 26 µM (inactive) | 17.5 | 49.1 µM (inactive) | 27.8 µM (inactive) | 14.9 µM (inactive) |  | 16.4 µM (inactive) | 29.2 µM (inactive) | 27.1 µM (inactive) | 30.5 µM (inactive) | 20.6 µM (inactive) | 27.7 µM (inactive) | 17.9 µM (inactive) | 23.7 µM (inactive) | 10 µM (inactive) | 21.7 µM (inactive) | 35.5 µM (inactive) | 23 µM (inactive) | 64.4 µM (inactive)
O=C(/C=C/c1ccc(O)c(O)c1)c1cc(O)cc(O)c1 | > 100 µM (inactive) | 10.4 µM (inactive) | 15.7 | 13 µM (inactive) | 10.7 µM (inactive) |  |  | 12.8 µM (inactive) | 14.7 µM (inactive) | 12.8 µM (inactive) | 10.6 µM (inactive) | 9.79 µM (inactive) | 14.4 µM (inactive) | 1.71 µM (inactive) | > 100 µM (inactive) | 14.3 µM (inactive) | 13 µM (inactive) | 13.2 µM (inactive) | 14 µM (inactive) | 13.9 µM (inactive)
Nc1nc(=O)c(/N=N/c2ccccc2)c(C(=O)O)[nH]1 | 84.5 µM (inactive) | > 100 µM (inactive) | 75.2 | 96.6 µM (inactive) | 62.8 µM (inactive) | 45.7 µM (inactive) |  | > 100 µM (inactive) | > 100 µM (inactive) | 61.8 µM (inactive) | > 100 µM (inactive) | 72.3 µM (inactive) | 85.3 µM (inactive) | 52.7 µM (inactive) | 93.8 µM (inactive) | > 100 µM (inactive) | > 100 µM (inactive) | 98.4 µM (inactive) | > 100 µM (inactive) | > 100 µM (inactive)
O=CC(O)C(O)C(O)C1CNC(=S)O1 (stereo not drawn) | > 100 µM (inactive) | > 100 µM (inactive) | > 100 | > 100 µM (inactive) | > 100 µM (inactive) | > 100 µM (inactive) |  | > 100 µM (inactive) | > 100 µM (inactive) | > 100 µM (inactive) | > 100 µM (inactive) | > 100 µM (inactive) | > 100 µM (inactive) | > 100 µM (inactive) | > 100 µM (inactive) | > 100 µM (inactive) | > 100 µM (inactive) | > 100 µM (inactive) | > 100 µM (inactive) | > 100 µM (inactive)
CNC(=O)C1(N)c2ccccc2C=Cc2ccccc21 | > 100 µM (inactive) | > 100 µM (inactive) | > 100 | > 100 µM (inactive) |  |  |  | > 100 µM (inactive) | > 100 µM (inactive) | > 100 µM (inactive) | > 100 µM (inactive) | > 100 µM (inactive) | > 100 µM (inactive) | > 100 µM (inactive) | > 100 µM (inactive) | > 100 µM (inactive) | > 100 µM (inactive) | > 100 µM (inactive) | > 100 µM (inactive) | > 100 µM (inactive)
Cc1cc(O)c(C(c2ccncc2)c2c(O)cc(C)[nH]c2=O)c(=O)[nH]1 | > 100 µM (inactive) | > 100 µM (inactive) | > 100 | > 100 µM (inactive) | > 100 µM (inactive) | > 100 µM (inactive) |  | > 100 µM (inactive) | > 100 µM (inactive) | > 100 µM (inactive) | > 100 µM (inactive) | > 100 µM (inactive) | > 100 µM (inactive) | > 100 µM (inactive) | > 100 µM (inactive) | > 100 µM (inactive) |  | > 100 µM (inactive) | > 100 µM (inactive) | > 100 µM (inactive)
Cc1ccc(-c2cc(-c3ccc(Cl)cc3)nc(/N=C3\C(=O)N(CN(C)C)c4ccccc43)n2)cc1 | 89.1 µM (inactive) | 41.2 µM (inactive) | 41.1 | > 100 µM (inactive) | 24.8 µM (inactive) | 39.9 µM (inactive) |  | > 100 µM (inactive) | 64.1 µM (inactive) | 64 µM (inactive) | 90.8 µM (inactive) | 89.9 µM (inactive) | > 100 µM (inactive) | 20.8 µM (inactive) | 48.4 µM (inactive) | 58.9 µM (inactive) | 31.4 µM (inactive) | > 100 µM (inactive) | > 100 µM (inactive) | > 100 µM (inactive)
O=C(CC(C(=O)c1cccs1)c1cccs1)c1ccccc1Cl (stereo not drawn) | > 100 µM (inactive) | > 100 µM (inactive) | 94.8 | > 100 µM (inactive) | 74.3 µM (inactive) | 77.1 µM (inactive) | > 100 µM (inactive) | > 100 µM (inactive) | > 100 µM (inactive) | 52.1 µM (inactive) | 29.7 µM (inactive) | > 100 µM (inactive) | 61.8 µM (inactive) |  | > 100 µM (inactive) | > 100 µM (inactive) | > 100 µM (inactive) |  | > 100 µM (inactive) | > 100 µM (inactive)
S=C(CSc1ccccc1)Nc1cccc2ccccc12 | 42 µM (inactive) | 21.6 µM (inactive) | 48.4 | 45.7 µM (inactive) | 22.3 µM (inactive) | 29.9 µM (inactive) |  | 80.2 µM (inactive) | 39.7 µM (inactive) | 35 µM (inactive) | 46.2 µM (inactive) | 61.1 µM (inactive) | 40.3 µM (inactive) | 20.9 µM (inactive) | 18.5 µM (inactive) | 67 µM (inactive) | 24.3 µM (inactive) | 20.8 µM (inactive) | 54.2 µM (inactive) | > 100 µM (inactive)
Cc1c2ccnc(C(N)=O)c2c(C)c2c1[nH]c1ccccc12 | 5.47 µM (inactive) | 9.31 µM (inactive) | 4.1 | 4.13 µM (inactive) | 10.5 µM (inactive) | 3.81 µM (inactive) | 14.1 µM (inactive) |  | 2.51 µM (inactive) | 2.4 µM (inactive) | 6.43 µM (inactive) | 5.46 µM (inactive) | 6.15 µM (inactive) | 7.59 µM (inactive) | 6.18 µM (inactive) | 4.13 µM (inactive) | 13.1 µM (inactive) | 9.08 µM (inactive) | 6.58 µM (inactive) | 7.66 µM (inactive)
O=C1CS(=O)(=O)C(c2cccc(Oc3ccccc3)c2)N1c1cccc(Cl)c1Cl (stereo not drawn) | > 100 µM (inactive) | 20.4 µM (inactive) |  | 19.8 µM (inactive) | 21 µM (inactive) | 36.2 µM (inactive) |  | 23.8 µM (inactive) | 20.3 µM (inactive) | 22.4 µM (inactive) | 29.5 µM (inactive) | 21.5 µM (inactive) | 24.3 µM (inactive) | 18 µM (inactive) | 18.2 µM (inactive) | 19.1 µM (inactive) | 19.5 µM (inactive) | 21.5 µM (inactive) | 39.1 µM (inactive) | 67 µM (inactive)
CCOC(=O)/C=C(/CN1C(=O)c2ccccc2C1=O)c1ccccc1 | > 100 µM (inactive) | > 100 µM (inactive) | > 100 | > 100 µM (inactive) | > 100 µM (inactive) | > 100 µM (inactive) | > 100 µM (inactive) |  | > 100 µM (inactive) | > 100 µM (inactive) | > 100 µM (inactive) | > 100 µM (inactive) | > 100 µM (inactive) | > 100 µM (inactive) | > 100 µM (inactive) | > 100 µM (inactive) | > 100 µM (inactive) | > 100 µM (inactive) | > 100 µM (inactive) | > 100 µM (inactive)
CCOC(=O)c1cc2c(=Cc3ccc(N(C)C)cc3)c3ccccc3n2[n+]1C | 3.71 µM (inactive) | 3.1 µM (inactive) | 10.4 | < 0.01 µM (active) | 1.57 µM (inactive) | 2.44 µM (inactive) | 1.69 µM (inactive) | 3.86 µM (inactive) | 5.87 µM (inactive) | 0.537 µM (active) | 6.12 µM (inactive) | 3.21 µM (inactive) |  |  | 1.32 µM (inactive) |  | 1.48 µM (inactive) | 0.206 µM (active) | 3.15 µM (inactive) | 3.94 µM (inactive)
